Earlier results as cited in EP1269978A2, “Use of bis-resorcinyltriazine derivatives in cosmetic or dermatological preparations” (Beiersdorf AG, priority 2001, dated 2003).

Details: n-Octanol / Wasser

CC1=C(/C=C/C(C)=C/C=C/C(C)=C/CO)C(C)(C)CCC1 [Retinol]
log P-Wert: ~7
